# “And” between values parts separate entries of the source, which are not always exact repeats. Identical values can stand only once.
# Assay: Clinical trial APD356-016: plasma and urine pharmacokinetics of lorcaserin, M1 and M5 after a 10 mg dose in subjects with renal impairment
# Conditions: Severe Renal Impairment Not Receiving Dialysis; for Plasma Concentration of HSO3-APD356 Metabolite, Max: group Max; for Plasma Concentration of HSO3-APD356 Metabolite, Max / Plasma Concentration of HSO3-APD356 Metabolite, Mean / Plasma Concentration of HSO3-APD356 Metabolite, Median / Plasma Concentration of HSO3-APD356 Metabolite, Min: N 8; for Plasma Concentration of HSO3-APD356 Metabolite, Mean: group Mean; for Plasma Concentration of HSO3-APD356 Metabolite, Median: group Median; for Plasma Concentration of HSO3-APD356 Metabolite, Min: group Min; for Plasma Concentration of HSO3-APD356 Metabolite: individual subject
# Method: The interaction of renal insufficiency with the pharmacokinetics, tolerability and safety of lorcaserin were evaluated in a formal PK study in subjects with renal impairment and in the populations studied in phase 2 and phase 3 clinical studies.
# The pharmacokinetic properties of lorcaserin in subjects with varying degrees of renal impairment were evaluated in clinical trial APD356-016. At the time of study conduct and analysis, subjects were assigned to renal impairment groups based on creatinine clearance calculated using IDEAL body weight (Table 1). This calculation was used to avoid overestimation of creatinine clearance due to the excess body weight (overweight and obese subjects were enrolled in the trial). Summaries of pharmacokinetic properties by group assignment using creatinine clearance calculated using ACTUAL body weights are also provided in the sections that follow.
# The FDA expects a reasonable margin between anticipated exposures and exposures that may produce toxicity. A reasonable margin can vary depending on the expected toxicity, but generally is an order of magnitude (10 times), but can sometimes be less for mild toxicity.
# Table 13. Summary of Plasma Concentrations (ng/mL) of HSO3-APD356 Metabolite over Time by Group: Severe Renal Impairment Not Receiving Dialysis (see Table 13 next page)
# Subject number 3140-505 was on dialysis and grouped in the end stage renal disease group.
structure (smiles),measurement,setting,value
C[C@H]1CN(S(=O)(=O)O)CCc2ccc(Cl)cc21 [HSO3-APD356 Metabolite],"Plasma Concentration of HSO3-APD356 Metabolite, Max",Day 1 0.5 h,182 ng/mL
same,"Plasma Concentration of HSO3-APD356 Metabolite, Max",Day 1 1 h,319 ng/mL
same,"Plasma Concentration of HSO3-APD356 Metabolite, Max",Day 1 2 h,489 ng/mL
same,"Plasma Concentration of HSO3-APD356 Metabolite, Max",Day 1 3 h,468 ng/mL
same,"Plasma Concentration of HSO3-APD356 Metabolite, Max",Day 1 4 h,542 ng/mL
same,"Plasma Concentration of HSO3-APD356 Metabolite, Max",Day 1 6 h,445 ng/mL
same,"Plasma Concentration of HSO3-APD356 Metabolite, Max",Day 1 8 h,473 ng/mL
same,"Plasma Concentration of HSO3-APD356 Metabolite, Max",Day 1 12 h,439 ng/mL
same,"Plasma Concentration of HSO3-APD356 Metabolite, Max",Day 1 16 h,410 ng/mL
same,"Plasma Concentration of HSO3-APD356 Metabolite, Max",Day 1 Predose,9.00 ng/mL
same,"Plasma Concentration of HSO3-APD356 Metabolite, Max",Day 2 24 h,406 ng/mL
same,"Plasma Concentration of HSO3-APD356 Metabolite, Max",Day 2 36 h,336 ng/mL
same,"Plasma Concentration of HSO3-APD356 Metabolite, Max",Day 3 48 h,292 ng/mL
same,"Plasma Concentration of HSO3-APD356 Metabolite, Max",Day 4 72 h,248 ng/mL
same,"Plasma Concentration of HSO3-APD356 Metabolite, Max",Day 5 96 h,225 ng/mL
same,"Plasma Concentration of HSO3-APD356 Metabolite, Max",Day 6 120 h,212 ng/mL
same,"Plasma Concentration of HSO3-APD356 Metabolite, Mean",Day 1 0.5 h,25.7 ng/mL
same,"Plasma Concentration of HSO3-APD356 Metabolite, Mean",Day 1 1 h,50.6 ng/mL
same,"Plasma Concentration of HSO3-APD356 Metabolite, Mean",Day 1 2 h,83.2 ng/mL
same,"Plasma Concentration of HSO3-APD356 Metabolite, Mean",Day 1 3 h,86.8 ng/mL
same,"Plasma Concentration of HSO3-APD356 Metabolite, Mean",Day 1 4 h,99.5 ng/mL
same,"Plasma Concentration of HSO3-APD356 Metabolite, Mean",Day 1 6 h,86.7 ng/mL
same,"Plasma Concentration of HSO3-APD356 Metabolite, Mean",Day 1 8 h,88.9 ng/mL
same,"Plasma Concentration of HSO3-APD356 Metabolite, Mean",Day 1 12 h,84.3 ng/mL
same,"Plasma Concentration of HSO3-APD356 Metabolite, Mean",Day 1 16 h,76.8 ng/mL
same,"Plasma Concentration of HSO3-APD356 Metabolite, Mean",Day 1 Predose,1.13 ng/mL
same,"Plasma Concentration of HSO3-APD356 Metabolite, Mean",Day 2 24 h,84.4 ng/mL
same,"Plasma Concentration of HSO3-APD356 Metabolite, Mean",Day 2 36 h,73.9 ng/mL
same,"Plasma Concentration of HSO3-APD356 Metabolite, Mean",Day 3 48 h,68.1 ng/mL
same,"Plasma Concentration of HSO3-APD356 Metabolite, Mean",Day 4 72 h,58.3 ng/mL
same,"Plasma Concentration of HSO3-APD356 Metabolite, Mean",Day 5 96 h,53.8 ng/mL
same,"Plasma Concentration of HSO3-APD356 Metabolite, Mean",Day 6 120 h,49.2 ng/mL
same,"Plasma Concentration of HSO3-APD356 Metabolite, Median",Day 1 0.5 h,1.33 ng/mL
same,"Plasma Concentration of HSO3-APD356 Metabolite, Median",Day 1 1 h,12.6 ng/mL
same,"Plasma Concentration of HSO3-APD356 Metabolite, Median",Day 1 2 h,24.5 ng/mL
same,"Plasma Concentration of HSO3-APD356 Metabolite, Median",Day 1 3 h,27.5 ng/mL
same,"Plasma Concentration of HSO3-APD356 Metabolite, Median",Day 1 4 h,31.6 ng/mL
same,"Plasma Concentration of HSO3-APD356 Metabolite, Median",Day 1 6 h,32.8 ng/mL
same,"Plasma Concentration of HSO3-APD356 Metabolite, Median",Day 1 8 h,29.5 ng/mL
same,"Plasma Concentration of HSO3-APD356 Metabolite, Median",Day 1 12 h,28.9 ng/mL
same,"Plasma Concentration of HSO3-APD356 Metabolite, Median",Day 1 16 h,28.1 ng/mL
same,"Plasma Concentration of HSO3-APD356 Metabolite, Median",Day 1 Predose,0.00 ng/mL
same,"Plasma Concentration of HSO3-APD356 Metabolite, Median",Day 2 24 h,32.5 ng/mL
same,"Plasma Concentration of HSO3-APD356 Metabolite, Median",Day 2 36 h,35.5 ng/mL
same,"Plasma Concentration of HSO3-APD356 Metabolite, Median",Day 3 48 h,33.8 ng/mL
same,"Plasma Concentration of HSO3-APD356 Metabolite, Median",Day 4 72 h,31.6 ng/mL
same,"Plasma Concentration of HSO3-APD356 Metabolite, Median",Day 5 96 h,31.3 ng/mL
same,"Plasma Concentration of HSO3-APD356 Metabolite, Median",Day 6 120 h,27.5 ng/mL
same,"Plasma Concentration of HSO3-APD356 Metabolite, Min",Day 1 0.5 h,0.00 ng/mL
same,"Plasma Concentration of HSO3-APD356 Metabolite, Min",Day 1 1 h,0.00 ng/mL
same,"Plasma Concentration of HSO3-APD356 Metabolite, Min",Day 1 2 h,6.08 ng/mL
same,"Plasma Concentration of HSO3-APD356 Metabolite, Min",Day 1 3 h,17.6 ng/mL
same,"Plasma Concentration of HSO3-APD356 Metabolite, Min",Day 1 4 h,25.4 ng/mL
same,"Plasma Concentration of HSO3-APD356 Metabolite, Min",Day 1 6 h,26.1 ng/mL
same,"Plasma Concentration of HSO3-APD356 Metabolite, Min",Day 1 8 h,25.8 ng/mL
same,"Plasma Concentration of HSO3-APD356 Metabolite, Min",Day 1 12 h,25.4 ng/mL
same,"Plasma Concentration of HSO3-APD356 Metabolite, Min",Day 1 16 h,18.0 ng/mL
same,"Plasma Concentration of HSO3-APD356 Metabolite, Min",Day 1 Predose,0.00 ng/mL
same,"Plasma Concentration of HSO3-APD356 Metabolite, Min",Day 2 24 h,27.1 ng/mL
same,"Plasma Concentration of HSO3-APD356 Metabolite, Min",Day 2 36 h,27.8 ng/mL
same,"Plasma Concentration of HSO3-APD356 Metabolite, Min",Day 3 48 h,25.8 ng/mL
same,"Plasma Concentration of HSO3-APD356 Metabolite, Min",Day 4 72 h,19.7 ng/mL
same,"Plasma Concentration of HSO3-APD356 Metabolite, Min",Day 5 96 h,15.1 ng/mL
same,"Plasma Concentration of HSO3-APD356 Metabolite, Min",Day 6 120 h,12.3 ng/mL
same,Plasma Concentration of HSO3-APD356 Metabolite,Day 1 0.5 h,182 ng/mL and 2.66 ng/mL and 8.54 ng/mL and 0.00 ng/mL (2×) and 12.2 ng/mL
same,Plasma Concentration of HSO3-APD356 Metabolite,Day 1 1 h,319 ng/mL and 22.8 ng/mL and 18.0 ng/mL and 0.00 ng/mL and 31.4 ng/mL and 4.30 ng/mL
same,Plasma Concentration of HSO3-APD356 Metabolite,Day 1 2 h,489 ng/mL and 42.2 ng/mL and 25.1 ng/mL and 6.08 ng/mL and 53.2 ng/mL and 13.3 ng/mL
same,Plasma Concentration of HSO3-APD356 Metabolite,Day 1 3 h,468 ng/mL and 52.4 ng/mL and 26.5 ng/mL and 17.6 ng/mL and 55.6 ng/mL and 20.9 ng/mL
same,Plasma Concentration of HSO3-APD356 Metabolite,Day 1 4 h,542 ng/mL and 53.3 ng/mL and 28.2 ng/mL and 28.6 ng/mL and 55.1 ng/mL and 25.4 ng/mL
same,Plasma Concentration of HSO3-APD356 Metabolite,Day 1 6 h,445 ng/mL and 51.9 ng/mL and 32.2 ng/mL and 29.8 ng/mL and 46.5 ng/mL and 26.1 ng/mL
same,Plasma Concentration of HSO3-APD356 Metabolite,Day 1 8 h,473 ng/mL and 49.7 ng/mL and 27.8 ng/mL and 29.2 ng/mL and 50.4 ng/mL and 25.8 ng/mL
same,Plasma Concentration of HSO3-APD356 Metabolite,Day 1 12 h,439 ng/mL and 45.9 ng/mL and 27.2 ng/mL and 27.3 ng/mL and 52.2 ng/mL and 25.4 ng/mL
same,Plasma Concentration of HSO3-APD356 Metabolite,Day 1 16 h,410 ng/mL and 46.9 ng/mL and 28.1 ng/mL and 27.5 ng/mL and 18.0 ng/mL and 28.0 ng/mL and 30.6 ng/mL
same,Plasma Concentration of HSO3-APD356 Metabolite,Day 1 Predose,0.00 ng/mL (6×) and 9.00 ng/mL
same,Plasma Concentration of HSO3-APD356 Metabolite,Day 2 24 h,406 ng/mL and 51.1 ng/mL and 33.0 ng/mL and 31.9 ng/mL and 62.4 ng/mL and 31.6 ng/mL and 32.0 ng/mL
same,Plasma Concentration of HSO3-APD356 Metabolite,Day 2 36 h,336 ng/mL and 45.5 ng/mL and 40.4 ng/mL and 30.6 ng/mL (2×) and 52.2 ng/mL and 28.4 ng/mL
same,Plasma Concentration of HSO3-APD356 Metabolite,Day 3 48 h,292 ng/mL and 47.2 ng/mL and 34.3 ng/mL and 31.0 ng/mL and 54.2 ng/mL and 33.3 ng/mL
same,Plasma Concentration of HSO3-APD356 Metabolite,Day 4 72 h,248 ng/mL and 40.2 ng/mL and 33.0 ng/mL and 27.9 ng/mL and 46.2 ng/mL and 30.2 ng/mL
same,Plasma Concentration of HSO3-APD356 Metabolite,Day 5 96 h,225 ng/mL and 36.0 ng/mL and 30.2 ng/mL and 28.5 ng/mL and 43.8 ng/mL and 32.3 ng/mL
same,Plasma Concentration of HSO3-APD356 Metabolite,Day 6 120 h,212 ng/mL and 30.4 ng/mL and 26.3 ng/mL and 25.2 ng/mL and 40.1 ng/mL and 28.6 ng/mL
